Laboratory results taken from the NIST ThermoML archive (doi:10.1016/j.tca.2014.11.028).
Numbers after ± are expanded uncertainties.

Tests used:
[1] = xn = mol fraction of the nth substance listed; details: 101 kPa, Liquid, Vibrating tube method
[2] = 101 kPa, Liquid, Vibrating tube method

C[N+](C)(C)CCO.[Cl-] [choline chloride] + OCCO
[1], x1 = 0.3333
Details | mass density [kg/m3]
283.15 K | 1122.9 ± 1.1
293.15 K | 1117.1 ± 1.1
303.15 K | 1111.4 ± 1.1
313.15 K | 1105.7 ± 1.1
323.15 K | 1100.1 ± 1.1
333.15 K | 1094.7 ± 1.1
343.15 K | 1088.7 ± 1.1
353.15 K | 1081.9 ± 1.1
363.15 K | 1074.4 ± 1.1

O=C(O)CC(=O)O [propanedioic acid] + C[N+](C)(C)CCO.[Cl-]
[1], x2 = 0.3333
Details | mass density [kg/m3]
283.15 K | 1191.5 ± 1.1
293.15 K | 1185.1 ± 1.1
303.15 K | 1178.6 ± 1.1
313.15 K | 1172.3 ± 1.1
323.15 K | 1166 ± 1.1
333.15 K | 1160.3 ± 1.1
343.15 K | 1154 ± 1.1
353.15 K | 1146.6 ± 1.1
363.15 K | 1138.8 ± 1.1

O [water]
[2]
Details | mass density [kg/m3]
283.15 K | 999.7 ± 1
323.15 K | 988 ± 1
333.15 K | 983.2 ± 1
343.15 K | 977.8 ± 1
353.15 K | 971.7 ± 1
363.15 K | 965 ± 1
